Patent US12187723B2 (BRISTOL-MYERS SQUIBB COMPANY, priority 2019, dated 2025)

Tests used:
human TLR7 = molecular target: T1, human TLR7 (Homo sapiens, UniProt Q9NYK1); experiment: TLR7 inhibition reporter assay (HEK-Blue SEAP); format: cell-based; conditions: HEK-Blue cells overexpressing human TLR7, gardiquimod 7.5 μM, 22 hour incubation
T1 construct: host or cells: HEK-Blue cells
T1 sequence (Q9NYK1 27-1049): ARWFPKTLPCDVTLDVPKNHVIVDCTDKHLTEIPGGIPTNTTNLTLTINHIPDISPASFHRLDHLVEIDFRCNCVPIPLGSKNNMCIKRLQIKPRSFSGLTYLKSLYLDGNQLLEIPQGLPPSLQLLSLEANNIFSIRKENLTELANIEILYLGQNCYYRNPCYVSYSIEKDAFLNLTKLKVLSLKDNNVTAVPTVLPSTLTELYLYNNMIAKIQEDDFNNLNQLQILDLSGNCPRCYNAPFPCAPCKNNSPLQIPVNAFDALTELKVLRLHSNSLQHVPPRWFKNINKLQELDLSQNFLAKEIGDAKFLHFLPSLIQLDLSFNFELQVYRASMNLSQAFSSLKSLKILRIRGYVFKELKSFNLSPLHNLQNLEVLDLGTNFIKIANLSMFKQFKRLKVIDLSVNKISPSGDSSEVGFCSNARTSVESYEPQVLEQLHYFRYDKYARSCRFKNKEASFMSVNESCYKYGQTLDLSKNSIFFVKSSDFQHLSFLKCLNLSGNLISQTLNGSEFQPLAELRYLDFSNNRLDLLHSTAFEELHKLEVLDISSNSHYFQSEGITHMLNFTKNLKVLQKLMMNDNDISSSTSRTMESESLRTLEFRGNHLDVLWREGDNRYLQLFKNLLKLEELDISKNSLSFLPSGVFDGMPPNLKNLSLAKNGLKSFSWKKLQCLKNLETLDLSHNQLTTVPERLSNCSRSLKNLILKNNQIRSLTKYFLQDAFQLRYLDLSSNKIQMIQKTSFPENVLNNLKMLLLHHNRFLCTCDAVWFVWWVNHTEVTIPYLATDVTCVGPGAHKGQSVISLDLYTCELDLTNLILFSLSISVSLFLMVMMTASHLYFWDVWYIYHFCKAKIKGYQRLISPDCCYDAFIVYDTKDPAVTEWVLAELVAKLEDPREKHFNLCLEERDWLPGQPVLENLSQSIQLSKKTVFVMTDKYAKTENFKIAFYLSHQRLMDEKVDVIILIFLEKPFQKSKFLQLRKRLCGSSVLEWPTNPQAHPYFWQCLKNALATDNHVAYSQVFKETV
Description: (§1) TLR7/8/9 Inhibition Reporter Assays
Briefly, cells are seeded into Greiner 384 well plates (15000 cells per well for TLR7, 20,000 for TLR8 and 25,000 for TLR9) and then treated with test compounds in DMSO to yield a final dose response concentration range of 0.05 nM-50 μM. […] After a 22 hour incubation at 37° C., 5% CO2, SEAP levels are determined with the addition of HEK-Blue™ Detection reagent (Invivogen), a cell culture medium that allows for detection of SEAP, according to manufacturer's specifications. The percent inhibition is determined as the % reduction in the HEK-Blue signal present in wells treated with agonist plus DMSO alone compared to wells treated with a known inhibitor.

human TLR9 = molecular target: T2, human TLR9 (Homo sapiens, UniProt Q9NR96); experiment: TLR9 inhibition reporter assay (HEK-Blue SEAP); format: cell-based; conditions: HEK-Blue cells overexpressing human TLR9, ODN2006 5 nM, 22 hour incubation
T2 construct: host or cells: HEK-Blue cells
T2 sequence (Q9NR96 26-1032): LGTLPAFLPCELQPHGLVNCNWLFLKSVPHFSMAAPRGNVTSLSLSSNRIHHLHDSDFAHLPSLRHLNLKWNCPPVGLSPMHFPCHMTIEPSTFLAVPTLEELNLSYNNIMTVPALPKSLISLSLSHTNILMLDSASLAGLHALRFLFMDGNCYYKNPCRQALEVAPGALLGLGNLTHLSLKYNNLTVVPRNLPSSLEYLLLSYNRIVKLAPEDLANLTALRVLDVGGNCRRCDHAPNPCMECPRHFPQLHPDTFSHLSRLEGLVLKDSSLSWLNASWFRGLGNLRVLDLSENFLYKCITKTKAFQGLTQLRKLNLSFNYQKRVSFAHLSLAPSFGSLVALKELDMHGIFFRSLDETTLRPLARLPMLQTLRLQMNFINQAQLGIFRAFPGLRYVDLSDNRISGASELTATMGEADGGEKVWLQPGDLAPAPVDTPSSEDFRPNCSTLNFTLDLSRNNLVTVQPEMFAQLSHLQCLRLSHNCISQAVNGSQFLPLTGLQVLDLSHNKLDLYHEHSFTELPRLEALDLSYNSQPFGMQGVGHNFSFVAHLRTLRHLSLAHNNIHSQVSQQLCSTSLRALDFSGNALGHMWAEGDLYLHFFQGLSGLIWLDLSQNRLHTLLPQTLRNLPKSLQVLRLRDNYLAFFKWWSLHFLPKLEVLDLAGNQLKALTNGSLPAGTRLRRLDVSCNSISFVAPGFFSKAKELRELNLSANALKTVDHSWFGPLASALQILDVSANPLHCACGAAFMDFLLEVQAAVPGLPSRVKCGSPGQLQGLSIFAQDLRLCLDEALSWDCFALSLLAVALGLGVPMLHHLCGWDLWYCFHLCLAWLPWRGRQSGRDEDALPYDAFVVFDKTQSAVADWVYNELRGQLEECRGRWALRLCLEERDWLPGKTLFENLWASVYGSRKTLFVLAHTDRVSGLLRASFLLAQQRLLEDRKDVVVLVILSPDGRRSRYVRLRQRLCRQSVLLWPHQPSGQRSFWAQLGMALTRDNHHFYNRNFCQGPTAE
Description: as §1
HEK-Blue™-cells (Invivogen) overexpressing human TLR7, TLR8 or TLR9 receptors were used for screening inhibitors of these receptors using an inducible SEAP (secreted embryonic alkaline phosphatase) reporter gene under the control of the IFN-β minimal promoter fused to five NF-κB and AP-1-binding sites. Briefly, cells are seeded into Greiner 384 well plates (15000 cells per well for TLR7, 20,000 for TLR8 and 25,000 for TLR9) and then treated with test compounds in DMSO to yield a final dose response concentration range of 0.05 nM-50 μM. After a 30 minute compound pre-treatment at room temperature, the cells are then stimulated with a TLR7 ligand (gardiquimod at a final concentration of 7.5 μM), TLR8 ligand (R848 at a final concentration of 15.9 μM) or TLR9 ligand (ODN2006 at a final concentration of 5 nM) to activate NF-κB and AP-1 which induce the production of SEAP. After a 22 hour incubation at 37° C., 5% CO2, SEAP levels are determined with the addition of HEK-Blue™ Detection reagent (Invivogen), a cell culture medium that allows for detection of SEAP, according to manufacturer's specifications. The percent inhibition is determined as the % reduction in the HEK-Blue signal present in wells treated with agonist plus DMSO alone compared to wells treated with a known inhibitor.

Row | IC50 (human TLR7) [nM] | IC50 (human TLR9) [nM] | SMILES
1 | 34.1 | 13400 | CCCN1CCC[C@@H](n2c(=O)[nH]c3cc(-c4cc(OC)c5ncnn5c4)c(C(F)(F)F)cc32)C1 [Example 115, (R)-5-(8-methoxy-[1,2,4]triazolo[1,5-a]pyridin-6-yl)-1-(1-propylpiperidin-3-yl)-6-(trifluoromethyl)-1,3-dihydro-2H-benzo[d]imidazol-2-one]
2 | 6.33 | 11900 | CCCN1CCC(n2c(=O)[nH]c3cc(-c4cc(OC)c5ncnn5c4)c(C(C)C)cc32)CC1 [Example 155, 6-isopropyl-5-(8-methoxy-[1,2,4]triazolo[1,5-a]pyridin-6-yl)-1-(1-propylpiperidin-4-yl)-1,3-dihydro-2H-benzo[d]imidazol-2-one]
3 | 23.6 | 9940 | COc1cc(-c2cc3[nH]c(=O)n([C@@H]4CCCN(C(C)C)C4)c3cc2C(F)(F)F)cn2ncnc12 [Example 111, (R)-1-(1-isopropylpiperidin-3-yl)-5-(8-methoxy-[1,2,4]triazolo[1,5-a]pyridin-6-yl)-6-(trifluoromethyl)-1,3-dihydro-2H-benzo[d]imidazol-2-one]
4 | 117 | 14600 | Cc1cc2c(cc1-c1cc(C)c3ncnn3c1)[nH]c(=O)n2[C@@H]1CCCN(CC(=O)N(C)C)C1 [Example 95, (R)—N,N-dimethyl-2-(3-(6-methyl-5-(8-methyl-[1,2,4]triazolo[1,5-a]pyridin-6-yl)-2-oxo-2,3-dihydro-1H-benzo[d]imidazol-1-yl)piperidin-1-yl)acetamide]
5 | 64.4 | 11800 | CCC(CC)CN1CCC[C@@H](n2c(=O)[nH]c3cc(-c4cc(OC)c5ncnn5c4)c(C(F)(F)F)cc32)C1 [Example 117, (R)-1-(1-(2-ethylbutyl)piperidin-3-yl)-5-(8-methoxy-[1,2,4]triazolo[1,5-a]pyridin-6-yl)-6-(trifluoromethyl)-1,3-dihydro-2H-benzo[d]imidazol-2-one]
6 | 215 | 4720 | Cc1cc2c(cc1-c1cc(C)c3ncnn3c1)[nH]c(=O)n2[C@H]1CCCN(C(=O)CN(C)C)C1 [Example 103, (S)-1-(1-(dimethylglycyl)piperidin-3-yl)-6-methyl-5-(8-methyl-[1,2,4]triazolo[1,5-a]pyridin-6-yl)-1,3-dihydro-2H-benzo[d]imidazol-2-one]
7 | 20.5 | 5910 | COCCN1CCC[C@@H](n2c(=O)[nH]c3cc(-c4cc(OC)c5ncnn5c4)c(C)cc32)C1 [Example 98, (R)-5-(8-methoxy-[1,2,4]triazolo[1,5-a]pyridin-6-yl)-1-(1-(2-methoxyethyl)piperidin-3-yl)-6-methyl-1,3-dihydro-2H-benzo[d]imidazol-2-one]
8 | 7.49 | 15300 | COc1cc(-c2cc3[nH]c(=O)n(C4CCN(C(C)C)CC4)c3cc2C(C)C)cn2ncnc12 [Example 163, 6-isopropyl-1-(1-isopropylpiperidin-4-yl)-5-(8-methoxy-[1,2,4]triazolo[1,5-a]pyridin-6-yl)-1,3-dihydro-2H-benzo[d]imidazol-2-one]
9 | 12.8 | 3690 | COc1cc(-c2cc3[nH]c(=O)n([C@H]4CCCN(CC(C)C)C4)c3cc2C(C)C)cn2ncnc12 [Example 129, (S)-1-(1-isobutylpiperidin-3-yl)-6-isopropyl-5-(8-methoxy-[1,2,4]triazolo[1,5-a]pyridin-6-yl)-1,3-dihydro-2H-benzo[d]imidazol-2-one]
10 | 173 | 2580 | Cc1cc2c(cc1-c1cc(C)c3ncnn3c1)[nH]c(=O)n2C1CCN(C(=O)CN(C)C)CC1 [Example 101, 1-(1-(dimethylglycyl)piperidin-4-yl)-6-methyl-5-(8-methyl-[1,2,4]triazolo[1,5-a]pyridin-6-yl)-1,3-dihydro-2H-benzo[d]imidazol-2-one]
11 | 3.08 | 16600 | CCc1cc2c(cc1-c1cc(OC)c3ncnn3c1)[nH]c(=O)n2[C@H]1CC[C@@H](NC(C)C)CC1 [Example 167, 6-ethyl-1-((1s,4s)-4-(isopropylamino)cyclohexyl)-5-(8-methoxy-[1,2,4]triazolo[1,5-a]pyridin-6-yl)-1,3-dihydro-2H-benzo[d]imidazol-2-one]
12 | 0.76 | 7810 | COc1cc(-c2cc3[nH]c(=O)n([C@@H]4CCCN(CC5CCOCC5)C4)c3cc2C(C)C)cn2ncnc12 [Example 139, (R)-6-isopropyl-5-(8-methoxy-[1,2,4]triazolo[1,5-a]pyridin-6-yl)-1-(1-((tetrahydro-2H-pyran-4-yl)methyl)piperidin-3-yl)-1,3-dihydro-2H-benzo[d]imidazol-2-one]
13 | 44 | > 50000 | COc1cc(-c2cc3[nH]c(=O)n([C@H]4CCCN(CC5CC5)C4)c3cc2C(C)C)cn2ncnc12 (single isomer, unassigned) [Example 128]
14 | 16.8 | 7820 | CCN1CCC[C@@H](n2c(=O)[nH]c3cc(-c4cc(OC)c5ncnn5c4)c(C(F)(F)F)cc32)C1 [Example 110, (R)-1-(1-ethylpiperidin-3-yl)-5-(8-methoxy-[1,2,4]triazolo[1,5-a]pyridin-6-yl)-6-(trifluoromethyl)-1,3-dihydro-2H-benzo[d]imidazol-2-one]

Row | SMILES | IC50 (human TLR7) [nM] | IC50 (human TLR9) [nM]
15 | COc1cc(-c2cc3[nH]c(=O)n(C4CCN(C5CCC5)CC4)c3cc2C(C)C)cn2ncnc12 [Example 156, 1-(1-cyclobutylpiperidin-4-yl)-6-isopropyl-5-(8-methoxy-[1,2,4]triazolo[1,5-a]pyridin-6-yl)-1,3-dihydro-2H-benzo[d]imidazol-2-one] | 17.9 | 23800
